Patent US20090076136A1, “THERAPEUTIC AGENT” (priority 2003, published 2009)
Like-named read-outs stand apart in the source and are kept apart here.

Tests used:
[1] = tested on: glucose transporter (mature adipocytes); assay: Influence of cytochalasin B on 2-deoxyglucose uptake in mature adipocytes; assay type: cell-based
Experimental: Specifically, as a sample, there was set a group with addition of a dimethyl sulfoxide solution of polygodial so as to have a final concentration of 3 μM. […] Furthermore, in each group, there was set a group with addition of cytochalasin B (manufactured by Nacalai Tesque, Inc., 10435-81) so as to have a final concentration 40 μM at the same time as the time of addition of the sample and insulin. Thereafter, the amount of 2-deoxy-[1,2-^3H(N)]-glucose taken into the adipocytes was determined in the same manner.

[2] = tested on: mature adipocytes (3T3-L1 cells); assay: Enhancing action on glucose uptake: 2-deoxyglucose uptake into mature adipocytes; assay type: cell-based
Experimental: The induction of differentiation into mature adipocytes was carried out by partially modifying the method of Rubin C. S. et al. (JBC. 253 7570-7578, 1978). 3T3-L1 cells (ATCC CCL-92.1) were suspended in a 10% calf serum (manufactured by ICN)-containing Dulbecco's modified Eagle's medium (manufactured by Sigma, D6046) containing 200 μM ascorbic acid so as to have a density of 4×10^3 cells/mL, and the suspension was put in each well of a 12-well microtiter plate in an amount of 2 mL per well. The cells were cultured at 37° C. for 7 days in the presence of 5% carbon dioxide gas. On the seventh day, the medium was exchanged with […] of a 10% fetal bovine serum (manufactured by GIBCO)-containing Dulbecco's modified Eagle's medium containing 200 μM ascorbic acid, 0.25 μM dexamethasone, 10 μg/mL insulin (manufactured by TAKARA BIO INC.) and 0.5 mM 3-isobutyl-1-methylxanthine (manufactured by Nacalai Tesque, Inc., 19624-86). After 45 hours, the medium was exchanged with 2 mL of a 10% fetal bovine serum-containing Dulbecco's modified Eagle's medium containing 200 μM ascorbic acid and 5 μg/mL insulin. The medium was exchanged on after 2 days and 5 days, and the cells were cultured for 7 days, to give mature adipocytes.
As the evaluation of enhancing action on glucose uptake, and also as the evaluation of insulin-mimetic action, the amount of 2-deoxyglucose uptake into mature adipocytes stimulated with the sample in the adipocytes was determined.
After the termination of the culture, the medium was removed, and the cells were washed twice with a 0.1% (w/v) bovine serum albumin (manufactured by Sigma, A8022)-containing Dulbecco's modified Eagle's medium. Thereafter, 1 mL of the same medium was put to each well. The cells were cultured overnight at 37° C. in the presence of 5% carbon dioxide gas. After the overnight culture, the cells were washed twice with a HEPES buffered saline (140 mM NaCl, 5 mM KCl, 2.5 mM MgSO4, 1 mM CaCl2, 20 mM HEPES-Na (pH 7.4)), and 0.9 mL of the same buffer was added thereto. The cells were cultured at 37° C. for 75 minutes. […] […] Thereafter, 100 μL of a HEPES buffered saline containing 2-deoxy-[1,2-^3H(N)]-glucose (manufactured by PerkinElmer Life Sciences Inc., NET549A) and 1 mM 2-deoxyglucose (manufactured by Nacalai Tesque, Inc., 10722-11) was added thereto at a final concentration of 0.5 μCi/mL, and the cells were further cultured at 37° C. for 10 minutes. After the termination of the culture, the supernatant was removed, the cells were washed three times with a phosphate buffer cooled to 4° C., and 0.5 mL of a 1% Nonidet P-40-containing phosphate buffer was added to lyse the cells, whereby 2-deoxy-[1,2-^3H(N)]-glucose taken into the cells was eluted. The radioactivity was determined with a liquid scintillation counter LS6500 (manufactured by Beckmann) using 25 μL of the supernatant with Ultima Gold (manufactured by PerkinElmer Life Sciences Inc., 6013329) as a scintillation cocktail.

ICR mice = details: for Blood Glucose Level, Before Administration of Sample: ICR mice fasted 18 hours, Mean ± Standard Error; for Blood Glucose Level, Before Glucose Tolerance Test: 1 hour after
Experimental: After fasting the mice for 18 hours, polygodial was dissolved in an olive oil so as to have a concentration of 0.3%, and the solution was forcibly orally administered to the mice at 10 mg/kg weight. An olive oil was administered to each of mice in the control group at 3.3 mL/kg weight in the same manner. After 1 hour from the administration, a 20% glucose solution was administered at 2 g/kg weight. Here, the glucose was administered in two ways, forcible oral administration and intraperitoneal administration. Before administration of the sample, before the glucose tolerance test, and after given periods of time after the glucose tolerance test, blood was collected from the vein of mouse tails, and a blood glucose level was determined.

mouse = assay: Single-dose oral toxicity in mouse; assay type: in vivo; details: 1 g/kg weight
Experimental: No toxicity is found even when the above-mentioned effective ingredient used in the present invention is administered in an effective dose for the exhibition of its action.

KK-Ay mice = tested on: KK-Ay mice
Experimental: Pathological amelioration of polygodial was examined using a type II diabetes model mice. Experiments were carried out with ten male 5-week old KK-Ay mice (CLEA Japan, Inc.) per group. Polygodial was dissolved in an olive oil so as to have a concentration of 0.03%, and the solution was forcibly orally administered to the mice once a day at 1 mg/kg weight for consecutive days. An olive oil was administered to each of mice in the control group at 3.3 mL/kg weight in the same manner. On the day before the beginning of administration and on the twenty-first day, blood was collected from the vein of mouse tails, and a blood glucose level was determined with a simple blood glucose meter, ACCU-CHEK Compact (manufactured by Roche Diagnostics K.K.). In addition, on the twenty-second day, blood was collected from the abdominal aorta, and the insulin concentration in serum was determined with Lebis Insulin Kit (manufactured by Shibayagi Co., Ltd.).

[3] = tested on: mature adipocytes (3T3-L1 cells); assay: Synergistic enhancing action by polygodial and insulin on glucose uptake; assay type: cell-based; details: FIG. 21
Experimental: The amount of 2-deoxyglucose uptake into mature adipocytes stimulated with the sample in the adipocytes was determined partly in accordance with the method described in Example 1 as the evaluation of synergistic enhancing action by a low-concentration polygodial and a low-concentration insulin on glucose uptake.
The mature adipocytes were prepared according to the method described in Example 1.
After the termination of the culture, the medium was removed, and the cells were washed twice with a Dulbecco's modified Eagle's medium containing 0.1% (w/v) bovine serum albumin. Thereafter, the cells were cultured at 37° C. overnight in the presence of 5% carbonic dioxide gas. After the overnight culture, the cells were washed twice with a HEPES buffered saline (140 mM NaCl, 5 mM KCl, 2.5 mM MgSO4, 1 mM CaCl2, 20 mM HEPES-Na (pH 7.4)). The amount 0.9 mL of the same buffer was added thereto. The cells were cultured at 37° C. for 45 minutes. Subsequently, polygodial was added thereto so as to have a final concentration of 300 nM, and insulin was added thereto so as to have a final concentration of 0.05 μg/mL. The cells were further cultured for 30 minutes. […] In addition, a group without addition of the sample was used as a negative control. Thereafter, the amount of 2-deoxy-[1,2-^3H(N)]-glucose taken into the adipocytes was determined in the same manner as in the method described in Example 1.

[4] = polygodial 10 mg/kg orally, glucose 2 g/kg by forcible oral administration
[5] = polygodial 10 mg/kg orally, glucose 2 g/kg by intraperitoneal administration
[6] = 1 mg/kg weight orally once a day, KK-Ay mice

Compound: CC1(C)CCC[C@]2(C)[C@@H](C=O)C(C=O)=CC[C@@H]12 [polygodial]
- 2-deoxy-[1,2-3H(N)]-glucose uptake compared to the negative control [1]: enhancement of 2-deoxy-[1,2-^3H(N)]-glucose uptake was found
- mediation of the enhancing action on glucose uptake [1]: mediated by a glucose transporter
- 2-deoxy-[1,2-3H(N)]-glucose uptake compared to the negative control ([2]; final concentration 3 μM, 1 μM, 0.3 μM or 0.1 μM, FIG. 1): enhancement of 2-deoxy-[1,2-^3H(N)]-glucose uptake was found
- Blood Glucose Level, Before Administration of Sample (ICR mice; glucose by forcible oral administration): 94 ± 7 mg/dL
- Blood Glucose Level, Before Administration of Sample (ICR mice; glucose by intraperitoneal administration): 77 ± 4 mg/dL
- Blood Glucose Level, Before Glucose Tolerance Test (ICR mice; polygodial 10 mg/kg orally, glucose by forcible oral administration): 126 ± 7 mg/dL
- Blood Glucose Level, Before Glucose Tolerance Test (ICR mice; polygodial 10 mg/kg orally, glucose by intraperitoneal administration): 90 ± 7 mg/dL
- Blood Glucose Level, 30 min. After Glucose Tolerance Test (ICR mice; [4]): 260 ± 15 mg/dL
- Blood Glucose Level, 60 min. After Glucose Tolerance Test (ICR mice; [4]): 224 ± 18 mg/dL
- Blood Glucose Level, 120 min. After Glucose Tolerance Test (ICR mice; [4]): 138 ± 9 mg/dL
- Blood Glucose Level, 30 min. After Glucose Tolerance Test (ICR mice; [5]): 300 ± 56 mg/dL
- Blood Glucose Level, 60 min. After Glucose Tolerance Test (ICR mice; [5]): 263 ± 34 mg/dL
- Blood Glucose Level, 120 min. After Glucose Tolerance Test (ICR mice; [5]): 126 ± 10 mg/dL
- Blood Glucose Level, 180 min. After Glucose Tolerance Test (ICR mice; [5]): 84 ± 5 mg/dL
- action on the elevation in the blood glucose level (in words) (ICR mice; polygodial 10 mg/kg weight, both oral and intraperitoneal administrations of glucose): suppressive action
- deaths after oral administration (mouse): no cases of deaths are found
- action of ameliorating insulin resistance (KK-Ay mice; [6]): action of ameliorating insulin resistance was found
- blood glucose level (in words) (KK-Ay mice; [6]): lowered
- insulin concentration (in words) (KK-Ay mice; [6]): lowered
- Blood Glucose Level, Twenty-First Day (KK-Ay mice; 1 mg/kg weight orally once a day, twenty-first day, KK-Ay mice, Mean ± Standard Error): 231 ± 36 mg/dL
- Insulin (concentration in serum) (KK-Ay mice; 1 mg/kg weight orally once a day, twenty-second day, KK-Ay mice, Mean ± Standard Error): 8.4 ± 4 ng/mL
- Blood Glucose Level, Previous Day (KK-Ay mice; day before the beginning of administration, KK-Ay mice, Mean ± Standard Error): 328 ± 25 mg/dL
- changes in weight and general symptoms (KK-Ay mice; during the experimental period, 1 mg/kg weight orally once a day): no changes were found
- enhancing action on glucose uptake by simultaneous addition with insulin ([3]; polygodial 300 nM added simultaneously with insulin 0.05 μg/mL, versus either alone): synergistically increase
- 2-deoxy-[1,2-3H(N)]-glucose uptake compared to the negative control ([3]; polygodial 300 nM alone): enhancement of 2-deoxy-[1,2-^3H(N)]-glucose uptake was found

Compound: insulin
- 2-deoxy-[1,2-3H(N)]-glucose uptake compared to the negative control ([1]; insulin 1 μg/mL, without cytochalasin B, FIG. 22): enhancement of 2-deoxy-[1,2-^3H(N)]-glucose uptake was found
- 2-deoxy-[1,2-3H(N)]-glucose uptake compared to the negative control ([2]; positive control, final concentration 1 μg/mL): enhancement of 2-deoxy-[1,2-^3H(N)]-glucose uptake was found
- 2-deoxy-[1,2-3H(N)]-glucose uptake compared to the negative control ([3]; insulin 0.05 μg/mL alone): enhancement of 2-deoxy-[1,2-^3H(N)]-glucose uptake was found
